Source: patent US10597388B2, “Pyridazinone herbicides” (FMC CORPORATION, priority 2014, dated 2020)

Tests used:
Assay in all cases: Test D controlled growth environment herbicide test, pre- and postemergence
Assay type in all cases: in vivo
[1] = test system: barley, spring (spring barley, Hordeum vulgare)
Excerpt: (§1) Seeds of plant species selected from bluegrass (annual bluegrass, Poa annua), blackgrass (Alopecurus myosuroides), Canada thistle (Cirsium arvense), canarygrass (Phalaris minor), chickweed (common chickweed, Stellaria media), geranium, cutleaf (cutleaf geranium, Geranium dissectum), galium (catchweed bedstraw, Galium aparine), bromegrass, downy (downy bromegrass, Bromus tectorum), field poppy (Papaver rhoeas), field violet (Viola arvensis), foxtail, green (green foxtail, Setaria viridis), deadnettle (henbit deadnettle, Lamium amplexicaule), ryegrass, Italian (Italian ryegrass, Lolium multiflorum), kochia (Kochia scoparia), lambsquarters (Chenopodium album), oilseed rape (Brassica napus), pigweed (Amaranthus retroflexus), chamomile (scentless chamomile, Matricaria inodora), Russian thistle (Salsola kali), speedwell (bird's-eye speedwell, Veronica persica), barley, spring (spring barley, Hordeum vulgare), wheat, spring (spring wheat, Triticum aestivum), buckwheat, wild (wild buckwheat, Polygonum convolvulus), mustard, wild (wild mustard, Sinapis arvensis), oat, wild (wild oat, Avena fatua), radish, wild (wild radish, Raphanus raphanistrum), windgrass (Apera spica-venti), barley, winter (winter barley, Hordeum vulgare), and wheat, winter (winter wheat, Triticum aestivum) were planted into a silt loam soil and treated preemergence with test chemicals formulated in a non-phytotoxic solvent mixture which included a surfactant.
(§2) At the same time, these species were planted in pots containing Redi-Earth® planting medium (Scotts Company, 14111 Scottslawn Road, Marysville, Ohio 43041) comprising spaghnum peat moss, vermiculite, wetting agent and starter nutrients and treated with postemergence applications of the test chemicals formulated in the same manner. Plants ranged in height from 2 to 18 cm (1- to 4-leaf stage). Treated plants and controls were maintained in a controlled growth environment for 14 to 21 d after which time all species were compared to controls and visually evaluated. Plant response ratings, summarized in Table D, are based on a scale of 0 to 100 where 0 is no effect and 100 is complete control. A dash (-) response means no test result.

[2] = test system: canarygrass (Phalaris minor)
Excerpt: as §1, §2

[3] = test system: mustard, wild (wild mustard, Sinapis arvensis)
Excerpt: as §1, §2

[4] = test system: wheat, spring (spring wheat, Triticum aestivum)
Excerpt: as §1, §2

[5] = test system: buckwheat, wild (wild buckwheat, Polygonum convolvulus)
Excerpt: as §1, §2

[6] = test system: galium (catchweed bedstraw, Galium aparine)
Excerpt: as §1, §2

[7] = test system: barley, winter (winter barley, Hordeum vulgare)
Excerpt: as §1, §2

[8] = test system: oilseed rape (Brassica napus)
Excerpt: as §1, §2

[9] = test system: foxtail, green (green foxtail, Setaria viridis)
Excerpt: as §1, §2

[10] = test system: bluegrass (annual bluegrass, Poa annua)
Excerpt: as §1, §2

[11] = test system: field poppy (Papaver rhoeas)
Excerpt: as §1, §2

[12] = test system: pigweed (Amaranthus retroflexus)
Excerpt: as §1, §2

[13] = test system: oat, wild (wild oat, Avena fatua)
Excerpt: as §1, §2

[14] = Postemergence, 31 g ai/ha, scale 0 to 100 (0 no effect, 100 complete control)
[15] = Postemergence, 125 g ai/ha, visual rating on scale 0 (no effect) to 100 (complete control), 14 to 21 d
[16] = Postemergence, 250 g ai/ha, scale 0 to 100 (0 no effect, 100 complete control)
[17] = Preemergence, 62 g ai/ha, scale 0 to 100 (0 no effect, 100 complete control)
[18] = Preemergence, 125 g ai/ha, scale 0 to 100 (0 no effect, 100 complete control)
[19] = Preemergence, 250 g ai/ha, scale 0 to 100, 0 no effect, 100 complete control
[20] = postemergence, 62 g ai/ha, scale 0 to 100, 0 no effect, 100 complete control

## Cc1nn(C)c(=O)c(-c2ccc(Br)c3ccccc23)c1O [Compound 75]
[1]; [14]
  Barley, Spring plant response rating: 0
[1]; [15]
  Plant response rating, Barley, Spring: 0
[1]; [16]
  Plant response rating, Barley, Spring: 0
[1]; Preemergence, 31 g ai/ha
  Plant response rating (scale of 0 to 100), Barley, Spring: 0
[1]; [17]
  Plant response rating, Barley, Spring: 0
[1]; [18]
  Plant response rating, Barley, Spring: 0
[1]; [19]
  Plant response rating, Barley, Spring: 0
[1]; [20]
  Plant response rating, Barley, Spring: 0
[2]; [14]
  Canarygrass plant response rating: 15
[2]; [15]
  Plant response rating, Canarygrass: 30
[2]; [16]
  Plant response rating, Canarygrass: 50
[2]; Preemergence, 31 g ai/ha
  Plant response rating (scale of 0 to 100), Canarygrass: 20
[2]; [17]
  Plant response rating, Canarygrass: 55
[2]; [18]
  Plant response rating, Canarygrass: 70
[2]; [19]
  Plant response rating, Canarygrass: 75
[2]; [20]
  Plant response rating, Canarygrass: 15
[3]; [14]
  Mustard, Wild plant response rating: 100
[3]; [15]
  Plant response rating, Mustard, Wild: 100
[3]; [16]
  Plant response rating, Mustard, Wild: 100
[3]; Preemergence, 31 g ai/ha
  Plant response rating (scale of 0 to 100), Mustard, Wild: 55
[3]; [17]
  Plant response rating, Mustard, Wild: 35
[3]; [18]
  Plant response rating, Mustard, Wild: 100
[3]; [19]
  Plant response rating, Mustard, Wild: 95
[3]; [20]
  Plant response rating, Mustard, Wild: 100
[4]; [14]
  Wheat, Spring plant response rating: 0
[4]; [15]
  Plant response rating, Wheat, Spring: 5
[4]; [16]
  Plant response rating, Wheat, Spring: 15
[4]; Preemergence, 31 g ai/ha
  Plant response rating (scale of 0 to 100), Wheat, Spring: 0
[4]; [17]
  Plant response rating, Wheat, Spring: 25
[4]; [18]
  Plant response rating, Wheat, Spring: 35
[4]; [19]
  Plant response rating, Wheat, Spring: 45
[4]; [20]
  Plant response rating, Wheat, Spring: 0
[5]; [14]
  Buckwheat, Wild plant response rating: 100
[5]; [15]
  Plant response rating, Buckwheat, Wild: 100
[5]; [16]
  Plant response rating, Buckwheat, Wild: 100
[5]; Preemergence, 31 g ai/ha
  Plant response rating (scale of 0 to 100), Buckwheat, Wild: 0
[5]; [17]
  Plant response rating, Buckwheat, Wild: 0
[5]; [18]
  Plant response rating, Buckwheat, Wild: 0
[5]; [19]
  Plant response rating, Buckwheat, Wild: 50
[5]; [20]
  Plant response rating, Buckwheat, Wild: 100
[6]; [14]
  Galium plant response rating: 90
[6]; [15]
  Plant response rating, Galium: 95
[6]; [16]
  Plant response rating, Galium: 100
[6]; Preemergence, 31 g ai/ha
  Plant response rating (scale of 0 to 100), Galium: 15
[6]; [17]
  Plant response rating, Galium: 50
[6]; [18]
  Plant response rating, Galium: 60
[6]; [19]
  Plant response rating, Galium: 80
[6]; [20]
  Plant response rating, Galium: 95
[7]; [14]
  Barley, Winter plant response rating: 0
[7]; [15]
  Plant response rating, Barley, Winter: 0
[7]; [16]
  Plant response rating, Barley, Winter: 5
[7]; Preemergence, 31 g ai/ha
  Plant response rating (scale of 0 to 100), Barley, Winter: 0
[7]; [17]
  Plant response rating, Barley, Winter: 0
[7]; [18]
  Plant response rating, Barley, Winter: 0
[7]; [19]
  Plant response rating, Barley, Winter: 0
[7]; [20]
  Plant response rating, Barley, Winter: 0
[8]; [14]
  Oilseed Rape plant response rating: 70
[8]; [15]
  Plant response rating, Oilseed Rape: 95
[8]; [16]
  Plant response rating, Oilseed Rape: 100
[8]; Preemergence, 31 g ai/ha
  Plant response rating (scale of 0 to 100), Oilseed Rape: 50
[8]; [17]
  Plant response rating, Oilseed Rape: 75
[8]; [18]
  Plant response rating, Oilseed Rape: 100
[8]; [19]
  Plant response rating, Oilseed Rape: 100
[8]; [20]
  Plant response rating, Oilseed Rape: 95
[9]; [14]
  Foxtail, Green plant response rating: 0
[9]; [15]
  Plant response rating, Foxtail, Green: 55
[9]; [16]
  Plant response rating, Foxtail, Green: 60
[9]; Preemergence, 31 g ai/ha
  Plant response rating (scale of 0 to 100), Foxtail, Green: 15
[9]; [17]
  Plant response rating, Foxtail, Green: 35
[9]; [18]
  Plant response rating, Foxtail, Green: 55
[9]; [19]
  Plant response rating, Foxtail, Green: 100
[9]; [20]
  Plant response rating, Foxtail, Green: 25
[10]; [14]
  Bluegrass plant response rating: 10
[10]; [15]
  Plant response rating, Bluegrass: 15
[10]; [16]
  Plant response rating, Bluegrass: 15
[10]; Preemergence, 31 g ai/ha
  Plant response rating (scale of 0 to 100), Bluegrass: 15
[10]; [17]
  Plant response rating, Bluegrass: 15
[10]; [18]
  Plant response rating, Bluegrass: 10
[10]; [19]
  Plant response rating, Bluegrass: 35
[10]; [20]
  Plant response rating, Bluegrass: 10
[11]; [14]
  Field Poppy plant response rating: 100
[11]; [15]
  Plant response rating, Field Poppy: 100
[11]; [16]
  Plant response rating, Field Poppy: 100
[11]; Preemergence, 31 g ai/ha
  Plant response rating (scale of 0 to 100), Field Poppy: 0
[11]; [17]
  Plant response rating, Field Poppy: 95
[11]; [18]
  Plant response rating, Field Poppy: 100
[11]; [19]
  Plant response rating, Field Poppy: 100
[11]; [20]
  Plant response rating, Field Poppy: 100
[12]; [14]
  Pigweed plant response rating: 100
[12]; [15]
  Plant response rating, Pigweed: 100
[12]; [16]
  Plant response rating, Pigweed: 100
[12]; Preemergence, 31 g ai/ha
  Plant response rating (scale of 0 to 100), Pigweed: 85
[12]; [17]
  Plant response rating, Pigweed: 100
[12]; [18]
  Plant response rating, Pigweed: 100
[12]; [19]
  Plant response rating, Pigweed: 100
[12]; [20]
  Plant response rating, Pigweed: 100
[13]; [14]
  Oat, Wild plant response rating: 50
[13]; [15]
  Plant response rating, Oat, Wild: 85
[13]; [16]
  Plant response rating, Oat, Wild: 80
[13]; Preemergence, 31 g ai/ha
  Plant response rating (scale of 0 to 100), Oat, Wild: 55
[13]; [17]
  Plant response rating, Oat, Wild: 65
[13]; [18]
  Plant response rating, Oat, Wild: 80
[13]; [19]
  Plant response rating, Oat, Wild: 85
[13]; [20]
  Plant response rating, Oat, Wild: 70
